Data reported in ChEMBL document CHEMBL5120862, “Novel non-covalent LSD1 inhibitors endowed with anticancer effects in leukemia and solid tumor cellular models” (Eur J Med Chem, 2022).
pIC50, pKd, pKi: −log10 of the molar value. Activity calls are given as the source filed them. The rule behind the calls is not given here.

How the values were obtained:
RD [1] = assay: Antiproliferative activity against human RD cells assessed as inhibition of cell growth incubated for 24 hrs; assay type: functional, cell-based
MV4-11 [2] = assay: Induction of cell cycle arrest in human MV4-11 cells assessed as accumulation of cells at G1 phase at 0.2 to […] incubated for 24 hrs; assay type: functional, cell-based; conditions: dose 0.2-2.5 µM
RD [3] = assay: Antiproliferative activity against human RD cells assessed as inhibition of cell growth incubated for 144 hrs; assay type: functional, cell-based
LSD1/CoREST complex [4] = molecular target: T1, LSD1/CoREST complex (Homo sapiens, UniProt O60341); assay: Binding affinity to human LSD1/CoREST assessed as dissociation constant by competitive fluorescence polarization assay; assay type: protein-complex assay
RD [5] = assay: Induction of apoptosis in human RD cells assessed as increase in caspase 3/7 level at 4 uM incubated for 24 hrs; assay type: functional, cell-based
RD [6] = assay: Antiproliferative activity against human RD cells assessed as inhibition of cell growth incubated for 72 hrs; assay type: functional, cell-based
RD [7] = assay: Antiproliferative activity against human RD cells assessed as reduction in live cells at 4 uM incubated for 72 hrs by calceinAM/propidium iodide staining based fluorescence microscopy; assay type: functional, cell-based
[8] = Cytotoxicity against human derived mesenchymal stem cells assessed as residual cell viability at 1.25 uM measured after 72 hrs relative to control; assay type: toxicity, cell-based; conditions: read-out: Activity
MDA-MB-231 = assay: Antiproliferative activity against human MDA-MB-231 cells assessed as inhibition of cell growth measured after 72 hrs by MTT assay; assay type: functional, cell-based; conditions: MDA-MB-231, 72 h
SJRH30 [9] = assay: Antiproliferative activity against human Rh30 cells assessed as reduction in live cells at 4 uM incubated for 24 hrs by calceinAM/propidium iodide staining based fluorescence microscopy; assay type: functional, cell-based
LSD1/CoREST complex [10] = molecular target: T1, LSD1/CoREST complex; assay: Inhibition of human LSD1/CoREST using histone H3 peptide as substrate by fluorescence polarization assay; assay type: protein-complex assay
SJRH30 [11] = assay: Antiproliferative activity against human Rh30 cells assessed as inhibition of cell growth incubated for 24 hrs; assay type: functional, cell-based; conditions: SJRH30, 24 h
[12] = molecular target: Lysine-specific histone demethylase 1A (Homo sapiens) (UniProt O60341); assay: Inhibition of LSD1 in human MV4-11 cells assessed as increase in CD86 expression level incubated for 24 hrs by qRT-PCR analysis; assay type: cell-based; conditions: dose 0.2-1 µM
[13] = molecular target: T2, Histone-lysine N-methyltransferase EHMT2 (Homo sapiens, UniProt Q96KQ7); assay: Inhibition of G9a (unknown origin) assessed as reduction in substrate methylation using histone H3 and SAM as substrate measured after 15 to 60 mins by microfluidic capillary electrophoresis analysis
T2 sequence (Q96KQ7 whole entry): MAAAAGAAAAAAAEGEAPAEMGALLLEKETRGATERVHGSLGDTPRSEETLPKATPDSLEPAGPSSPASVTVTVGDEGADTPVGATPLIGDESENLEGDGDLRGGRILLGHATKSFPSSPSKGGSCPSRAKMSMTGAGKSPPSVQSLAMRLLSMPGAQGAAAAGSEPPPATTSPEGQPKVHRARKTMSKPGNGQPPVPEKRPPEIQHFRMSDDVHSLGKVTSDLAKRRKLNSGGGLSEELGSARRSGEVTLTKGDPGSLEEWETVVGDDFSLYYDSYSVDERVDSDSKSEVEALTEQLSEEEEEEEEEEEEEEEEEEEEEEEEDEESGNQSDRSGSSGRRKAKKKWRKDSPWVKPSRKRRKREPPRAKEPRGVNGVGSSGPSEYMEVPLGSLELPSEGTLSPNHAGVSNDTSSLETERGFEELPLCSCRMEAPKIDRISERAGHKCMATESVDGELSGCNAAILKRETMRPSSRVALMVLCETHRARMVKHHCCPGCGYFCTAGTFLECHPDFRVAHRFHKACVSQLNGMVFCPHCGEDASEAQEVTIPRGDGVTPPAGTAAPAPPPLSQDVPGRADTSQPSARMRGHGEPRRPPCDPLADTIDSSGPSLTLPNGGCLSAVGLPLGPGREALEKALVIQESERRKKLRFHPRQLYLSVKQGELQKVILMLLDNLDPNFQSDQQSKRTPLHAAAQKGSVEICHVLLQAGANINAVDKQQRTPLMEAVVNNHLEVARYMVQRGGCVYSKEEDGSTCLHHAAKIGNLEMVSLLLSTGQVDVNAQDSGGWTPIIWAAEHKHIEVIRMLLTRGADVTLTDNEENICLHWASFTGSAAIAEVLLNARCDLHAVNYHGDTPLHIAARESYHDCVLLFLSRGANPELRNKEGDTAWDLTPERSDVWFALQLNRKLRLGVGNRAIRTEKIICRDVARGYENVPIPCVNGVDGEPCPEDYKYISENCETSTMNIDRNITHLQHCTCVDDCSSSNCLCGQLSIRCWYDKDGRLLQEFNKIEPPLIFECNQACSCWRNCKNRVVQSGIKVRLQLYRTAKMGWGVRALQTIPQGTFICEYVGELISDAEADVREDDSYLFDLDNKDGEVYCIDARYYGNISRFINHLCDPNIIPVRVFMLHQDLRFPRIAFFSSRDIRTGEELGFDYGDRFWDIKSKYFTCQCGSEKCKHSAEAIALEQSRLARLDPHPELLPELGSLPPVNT

[14] = molecular target: Lysine-specific histone demethylase 1A (Homo sapiens) (UniProt O60341); assay: Inhibition of LSD1 in human MV4-11 cells assessed as increase in H3K4me2 level at 0.2 to […] incubated for 24 hrs by Western blot analysis; assay type: cell-based; conditions: dose 0.2-2.5 µM
THP-1 [15] = assay: Antiproliferative activity against human THP-1 cells assessed as inhibition of cell growth incubated for 24 hrs by CellTiter-Glo luminescent cell viability assay; assay type: functional, cell-based; conditions: THP-1, 24 h
[16] = molecular target: Lysine-specific histone demethylase 1A (Homo sapiens) (UniProt O60341); assay: Inhibition of LSD1 in human Rh30 cells assessed as increase in H3K4me2 level at 2 uM incubated for 48 hrs by Western blot analysis; assay type: cell-based
SJRH30 [17] = assay: Antiproliferative activity against human Rh30 cells assessed as inhibition of cell growth incubated for 144 hrs; assay type: functional, cell-based; conditions: SJRH30, 144 h
THP-1 [18] = assay: Antiproliferative activity against human THP-1 cells assessed as inhibition of cell growth incubated for 144 hrs by CellTiter-Glo luminescent cell viability assay; assay type: functional, cell-based; conditions: THP-1, 144 h
THP-1 [19] = assay: Antiproliferative activity against human THP-1 cells assessed as inhibition of cell growth incubated for 72 hrs by CellTiter-Glo luminescent cell viability assay; assay type: functional, cell-based; conditions: THP-1, 72 h
[20] = molecular target: Lysine-specific histone demethylase 1A (Homo sapiens) (UniProt O60341); assay: Inhibition of LSD1 in human RD cells assessed as increase in H3K4me2 level at 2 uM incubated for 48 hrs by Western blot analysis; assay type: cell-based
SJRH30 [21] = assay: Induction of apoptosis in human Rh30 cells assessed as increase in caspase 3/7 level at 4 uM incubated for 24 hrs; assay type: functional, cell-based
MV4-11 [22] = assay: Induction of apoptosis in human MV4-11 cells assessed as accumulation of cells at sub-G1 phase incubated for 24 hrs; assay type: functional, cell-based; conditions: dose 0.2-25 µM, DDE = dose-dependent effect
MV4-11 [23] = assay: Antiproliferative activity against human MV4-11 cells assessed as inhibition of cell growth at […] incubated for 72 to 144 hrs by trypan blue staining based analysis; assay type: functional; conditions: dose 2.5 µM, time 72-144 hrs
SJRH30 [24] = assay: Antiproliferative activity against human Rh30 cells assessed as inhibition of cell growth incubated for 72 hrs; assay type: functional, cell-based; conditions: SJRH30, 72 h
RD [25] = assay: Antiproliferative activity against human RD cells assessed as reduction in live cells at 3.5 uM incubated for 72 hrs by calceinAM/propidium iodide staining based fluorescence microscopy; assay type: functional, cell-based
SJRH30 [26] = assay: Antiproliferative activity against human Rh30 cells assessed as reduction in live cells at 3.5 uM incubated for 24 hrs by calceinAM/propidium iodide staining based fluorescence microscopy; assay type: functional, cell-based
SJRH30 [27] = assay: Induction of apoptosis in human Rh30 cells assessed as increase in caspase 3/7 level at 3.5 uM incubated for 24 hrs; assay type: functional, cell-based

SMILES	pIC50 (RD [1])	pIC50 (RD [3])	pIC50 (RD [6])	pIC50 (MDA-MB-231)	pIC50 (SJRH30 [11])	pIC50 (THP-1 [15])	pIC50 (SJRH30 [17])	pIC50 (THP-1 [18])	pIC50 (THP-1 [19])	pIC50 (SJRH30 [24])	other results
C#CCN(C)CCCNc1nc(NC2CCN(Cc3ccccc3)CC2)c2cc(OC)c(OC)cc2n1	5.34	5.85	5.72	5.47	5.75	6.38	5.85	6.80	6.47	5.82	Activity (MV4-11 [2]): Active; pKd (LSD1/CoREST complex [4]): 7.19; Activity (RD [5]): Active; Activity (RD [7]): Active; viability at 72 h, 1.25 µM [8]: 96%; Activity (SJRH30 [9]): Active; pKi (LSD1/CoREST complex [10]): 6.82; inhibition [12]: Active; pKi [13]: 4.58; inhibition [14]: Active; inhibition [16]: Active; inhibition [20]: Active; Activity (SJRH30 [21]): Active; Activity (MV4-11 [22]): Dde; inhibition (MV4-11 [23]): Active
COc1cc2c(NC3CCN(C(C)C)CC3)nc(C3CCCCC3)nc2cc1OCCCN1CCCC1	4.95	5.54	5.52	5.45	5.30	6.08	5.61	6.62	6.47	5.58	Activity (RD [25]): Active; Activity (SJRH30 [26]): Active; Activity (SJRH30 [27]): Active
